Tests used:
Assay type in all cases: in vivo
BKW male albino mice = assay: Black and white box test (Example 10); conditions: 0.1 mg/kg IP 40 min before test, 5-min period
rats [1] = assay: Elevated plus maze (X-maze) in rats; conditions: 0.125 mg/kg IP 40 min before test, 5-min period
Text: The X-maze is constructed from Perspex® and comprises four arms (2 open, 2 closed), each 50 cm long by 9.5 wide and 40 high (closed, arms only) connected by a centre square (9.5×9.5). The open arm has a small lip (3 mm) to assist in the retention of the rat on the arm. The apparatus was housed in a room under subdued lighting conditions.
This model is based on the observation of spontaneous activity of rodents placed in an aversive environment produced by height and often spaces. […] Anxiolytic drugs increase the exploratory activity and the number of entries into the open arms. Rats were allowed at least 1 hour to acclimatise to the environment before testing commenced. Drug treatments were given IP in a pseudo-random, blind design, 40 minutes before behavioural testing, as appropriate. Rats were placed onto the centre square of the X-maze facing a specified open arm, and its behaviour was recorded by remote video over a 5 minute experimental period. The behavioural parameters were subsequently assessed by technicians reviewing the videotape and included: entries into each arm type, time spent on each arm type, rearing, stretch attend postures and head dips.

rats [2] = assay: Escape deficit test (learned helplessness), antidepressant activity; conditions: rats treated IP for 15 days, unavoidable stress 16 h and escape test 24 h after last dosing; out of 30 trials; dose not given
Method: The “Escape deficit” test that derives from the classic paradigm of “learned helplessness” was used, as described by Meloni et al. in Pharmacol. Biochem. Behav. 46, 423-6 (1993) and Gambarana et al. in Behav. Pharmacol. 6, 66-73 (1995) and Neuropsychopharmacol. 21, 247-57 (1999). Exposure to an unavoidable stress induces […], which, after 24 hours, makes the rats unable to escape from a nociceptive stimulus. Rats exposed to unavoidable stress make 0-5 escapes out of 30 trials, while naïve rats realise 26-30 escapes. Classical anti-depressives prevent the occurrence of the escape deficit after chronic treatment (15 days).
Rats were treated intra-peritoneally (IP) for 15 days, and then submitted to the unavoidable stress (16 hours after the last dosing) prior to being subjected to the escape test (24 hours after the last dosing).

[3] = test system: Male rats of the Wistar strain; assay: Despair test (forced swim); conditions: 5-min test, mean ± S.E.M.
[4] = test system: Male rats of the Wistar strain; assay: Reserpine-induced changes in open field behaviour; conditions: reserpine 0.1 mg/kg SC daily for 14 days, 5-min test, mean ± S.E.M.
Method: Rats treated with the compound of Example 1 were compared to either rats treated with the classical antidepressant, clomipramine or controls in the despair test (forced swim). The same groups were also tested for the reserpine-induced changes in open field behaviour.
Male rats of the Wistar strain (purchased from Charles River, Italy) weighing 220-240 g were used throughout all experiments. For at least 1 week prior to the experiment, the rats were housed four to a cage at a constant temperature of 21° C., and under a 12-h light/dark cycle (lights on between 08:00 and 20:00), with food and water available ad libitum.
An acute IP injection of clomipramine hydrochloride (50 mg/kg) or of the compound of Example 1 (0.2 and 0.5 mg/kg) or physiological saline was made in animals subjected to the reserpine-induced changes in the open field test (the injection was made together with the last reserpine administration, e.g. 1 h prior to the open field test).
All animals were gently manipulated by experienced facilities' keepers avoiding any environmental or physical stress. Rats subjected to drugs or physiological saline administration received an injection of a 1-mL standard volume of solution with a 23-gauge stainless steel needle of 31 mm length (for […]) or 21 mm length (for SC injections). The animals were randomly assigned to any treatment group and were used only once in the behavioural experiments.
Reserpine-induced changes in open field behaviour was studied according to the method described in Naunyn-Schmiedeberg's Arch. Pharmacol. 293: 109-114 (Vetulani et al., 1976). Reserpine (Sigma, USA) was dissolved in physiological saline and injected daily for 14 days at the dose of 0.1 mg/kg subcutaneously (SC). A period of 1 hour after the last injection of reserpine, animals were subjected to the open field test. This consisted of the measure of ambulation and rearing of the rat in a circular area divided into 17 equal sections and lighted by a centrally suspended lamp. The areas explored by the rat at least with anterior paws was recorded in 5 min test. The episodes of rearing towards the centre or the walls were also recorded in 5 min test.
All data were analysed using univariate random design analysis of variance (one-way ANOVA) and the post hoc Dunnett's test for multiple comparisons. A P-value of 0.05 or less was considered as indicative of a significant difference.

[5] = acute 0.2 mg/kg IP 1 h prior to open field test
[6] = acute 0.5 mg/kg IP 1 h prior to open field test
[7] = acute 0.5 mg/kg IP 1 h prior to open field test, listed as Example 1

O=C1CCCC=C1C1COCCN1O (stereo not shown) [Ex. 1 (Abio 09/01), 2-(4-hydroxy-3-morpholinyl)-2-cyclohexenone]
Atot = Total exploratory activity (BKW male albino mice): +10.4 | CB/TB = crossings in the white compartment/time in white (BKW male albino mice): −0.05 | CN/TN = crossings in the black compartment/time in black (BKW male albino mice): 0.08 | Ctot = total number of crossings (BKW male albino mice): +7.5 | FI = Initial potency (BKW male albino mice): +11.5 | PT = Total passages through the partition (BKW male albino mice): +0.9 | RB/TB = rearings in the white compartment/time in white (BKW male albino mice): +0.02 | RN/TN = rearings in the black compartment/time in black (BKW male albino mice): +0.06 | Rtot = Total number of rearings (BKW male albino mice): +5 | TB = time in white section (BKW male albino mice; signed value): +53.4 | % time spent in open arms (rats [1]): 39 ± 10% | No. of entries in open arms (rats [1]): 5.2 ± 1.4 | No. of escapes (rats [2]): 23.3 ± 1.3 | Duration of Immobility ([3]; 0.2 mg/kg IP): 167.00 ± 11.11 | Duration of Immobility ([3]; 0.5 mg/kg IP, 0.5 mg/kg): 109.83 ± 9.12 | Duration of Immobility ([3]; 0.5 mg/kg IP, listed as Example 1, 0.5 mg/kg): significant decrease of immobility time | No. of Floor Units (ambulation) [4, 5]: 128.1 ± 11.9 | Rearing Episodes [4, 5]: 5.9 ± 0.3 | No. of Floor Units (ambulation) [4, 6]: 92.2 ± 11.1 | Rearing Episodes [4, 6]: 2.2 ± 0.5 | No. of Floor Units (ambulation) [4, 7]: decreased ambulation | Rearing Episodes [4, 7]: decreased ambulation (number of floor units entered) and rearing

Reference: US7842690B2, “Cyclic hydroxylamine as psychoactive compounds” (BTG International Limited, priority 2003, dated 2010)
